{
  "source": "ChEMBL document CHEMBL4602617",
  "about": "“Discovery and optimization of heteroaryl piperazines as potent and selective PI3Kδ inhibitors” (Bioorg Med Chem Lett, 2020)",
  "key": {"[1]": {"biological_target": "Peroxisome proliferator-activated receptor alpha (Homo sapiens) (UniProt Q07869)", "assay": "Inhibition of human PPARalpha expressed in Escherichia coli at 10 uM relative to control"}, "[2]": {"biological_target": "Protein kinase C beta type (Homo sapiens, UniProt P05771)", "sequence (P05771 whole entry)": "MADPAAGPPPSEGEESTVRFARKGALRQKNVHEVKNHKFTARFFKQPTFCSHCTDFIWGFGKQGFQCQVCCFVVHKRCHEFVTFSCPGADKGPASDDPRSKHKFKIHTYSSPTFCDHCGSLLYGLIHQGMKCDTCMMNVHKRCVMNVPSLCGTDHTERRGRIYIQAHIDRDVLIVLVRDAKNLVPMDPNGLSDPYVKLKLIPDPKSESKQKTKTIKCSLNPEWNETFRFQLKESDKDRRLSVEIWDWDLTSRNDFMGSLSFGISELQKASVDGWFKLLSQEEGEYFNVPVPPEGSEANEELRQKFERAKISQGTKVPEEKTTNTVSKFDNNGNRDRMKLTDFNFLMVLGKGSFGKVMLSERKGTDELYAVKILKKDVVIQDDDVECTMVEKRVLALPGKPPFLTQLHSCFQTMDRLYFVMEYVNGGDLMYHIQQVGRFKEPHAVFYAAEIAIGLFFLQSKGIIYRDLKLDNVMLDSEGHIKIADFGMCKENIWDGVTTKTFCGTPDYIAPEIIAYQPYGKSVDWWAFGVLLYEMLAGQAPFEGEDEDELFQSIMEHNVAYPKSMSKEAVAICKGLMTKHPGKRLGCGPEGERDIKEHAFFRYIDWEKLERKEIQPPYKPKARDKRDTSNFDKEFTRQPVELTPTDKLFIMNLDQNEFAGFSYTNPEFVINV", "assay": "Inhibition of recombinant full length human GST-tagged PKCbeta2 expressed in insect expression system using serine/threonine-7 peptide as substrate incubated for 60 mins in presence of ATP by Z'-LYTE assay"}, "[3]": {"biological_target": "G protein-coupled receptor kinase 3 (Homo sapiens, UniProt P35626)", "sequence (P35626 whole entry)": "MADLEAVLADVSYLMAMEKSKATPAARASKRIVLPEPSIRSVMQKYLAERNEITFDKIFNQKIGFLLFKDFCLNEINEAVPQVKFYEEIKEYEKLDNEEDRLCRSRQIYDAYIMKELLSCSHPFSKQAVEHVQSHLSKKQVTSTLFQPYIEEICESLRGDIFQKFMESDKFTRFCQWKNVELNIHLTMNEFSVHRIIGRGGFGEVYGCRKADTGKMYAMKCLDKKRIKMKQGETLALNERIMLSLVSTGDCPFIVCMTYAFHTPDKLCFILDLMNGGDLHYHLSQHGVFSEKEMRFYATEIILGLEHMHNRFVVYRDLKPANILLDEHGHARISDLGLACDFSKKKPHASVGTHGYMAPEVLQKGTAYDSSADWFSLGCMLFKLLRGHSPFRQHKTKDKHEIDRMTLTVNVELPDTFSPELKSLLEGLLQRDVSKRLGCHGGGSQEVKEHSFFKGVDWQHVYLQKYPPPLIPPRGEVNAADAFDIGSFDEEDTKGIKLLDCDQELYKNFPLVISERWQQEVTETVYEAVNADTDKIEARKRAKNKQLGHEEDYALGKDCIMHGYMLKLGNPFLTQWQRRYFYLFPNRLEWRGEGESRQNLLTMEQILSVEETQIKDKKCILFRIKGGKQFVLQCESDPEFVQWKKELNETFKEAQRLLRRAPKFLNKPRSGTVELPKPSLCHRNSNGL", "assay": "Inhibition of recombinant full length human GST-tagged GRK3 expressed in baculovirus expression system using serine/threonine-16 peptide as substrate incubated for 60 mins in presence of ATP by Z'-LYTE assay"}, "[4]": {"biological_target": "Casein kinase I isoform gamma-3 (Homo sapiens, UniProt Q9Y6M4)", "sequence (Q9Y6M4 whole entry, canonical isoform)": "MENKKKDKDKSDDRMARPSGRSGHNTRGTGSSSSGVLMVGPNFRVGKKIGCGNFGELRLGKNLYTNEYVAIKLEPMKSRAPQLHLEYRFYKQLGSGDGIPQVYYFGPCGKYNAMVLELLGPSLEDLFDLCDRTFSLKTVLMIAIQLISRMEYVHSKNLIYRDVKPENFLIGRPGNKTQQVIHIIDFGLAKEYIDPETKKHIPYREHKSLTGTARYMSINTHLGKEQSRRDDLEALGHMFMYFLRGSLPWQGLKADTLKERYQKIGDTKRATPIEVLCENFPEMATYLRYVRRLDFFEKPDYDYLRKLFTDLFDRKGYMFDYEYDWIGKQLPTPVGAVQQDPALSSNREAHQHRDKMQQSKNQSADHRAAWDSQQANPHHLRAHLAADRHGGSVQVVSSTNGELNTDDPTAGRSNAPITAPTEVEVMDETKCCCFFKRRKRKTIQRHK", "assay": "Inhibition of recombinant human full-length GST-tagged CSNK1G3 expressed in baculovirus expression system using FRET-labeled Ser/Thr 05 peptide as substrate measured after 1 hr in presence of ATP by Z'-lyte assay"}, "[5]": {"biological_target": "Sodium-dependent noradrenaline transporter (Homo sapiens) (UniProt P23975)", "assay": "Displacement of [125I]RTI-55 from full length recombinant human NET expressed in MDCK cells at 10 uM after 3 hrs by radiometric scintillation analysis relative to control", "type": "cell-based"}, "[6]": {"biological_target": "Vasopressin V1a receptor (Homo sapiens) (UniProt P37288)", "assay": "Displacement of [125I]phenylacetylTyr(Me)PheGlnAsnArgProArgTyr from recombinant full length human V1A receptor expressed in HEK293 cells at 10 uM after 120 mins by radiometric scintillation analysis relative to control", "type": "cell-based"}, "[7]": {"biological_target": "Focal adhesion kinase 1 (Homo sapiens, UniProt Q05397)", "assay": "Inhibition of recombinant full length human GST-tagged PTK2 expressed in baculovirus expression system using tyr07 peptide as substrate incubated for 60 mins in presence of ATP by Z'-LYTE assay"}, "[8]": {"biological_target": "Mast/stem cell growth factor receptor Kit (Homo sapiens, UniProt P10721)", "sequence (P10721 whole entry, the tested form may be a part)": "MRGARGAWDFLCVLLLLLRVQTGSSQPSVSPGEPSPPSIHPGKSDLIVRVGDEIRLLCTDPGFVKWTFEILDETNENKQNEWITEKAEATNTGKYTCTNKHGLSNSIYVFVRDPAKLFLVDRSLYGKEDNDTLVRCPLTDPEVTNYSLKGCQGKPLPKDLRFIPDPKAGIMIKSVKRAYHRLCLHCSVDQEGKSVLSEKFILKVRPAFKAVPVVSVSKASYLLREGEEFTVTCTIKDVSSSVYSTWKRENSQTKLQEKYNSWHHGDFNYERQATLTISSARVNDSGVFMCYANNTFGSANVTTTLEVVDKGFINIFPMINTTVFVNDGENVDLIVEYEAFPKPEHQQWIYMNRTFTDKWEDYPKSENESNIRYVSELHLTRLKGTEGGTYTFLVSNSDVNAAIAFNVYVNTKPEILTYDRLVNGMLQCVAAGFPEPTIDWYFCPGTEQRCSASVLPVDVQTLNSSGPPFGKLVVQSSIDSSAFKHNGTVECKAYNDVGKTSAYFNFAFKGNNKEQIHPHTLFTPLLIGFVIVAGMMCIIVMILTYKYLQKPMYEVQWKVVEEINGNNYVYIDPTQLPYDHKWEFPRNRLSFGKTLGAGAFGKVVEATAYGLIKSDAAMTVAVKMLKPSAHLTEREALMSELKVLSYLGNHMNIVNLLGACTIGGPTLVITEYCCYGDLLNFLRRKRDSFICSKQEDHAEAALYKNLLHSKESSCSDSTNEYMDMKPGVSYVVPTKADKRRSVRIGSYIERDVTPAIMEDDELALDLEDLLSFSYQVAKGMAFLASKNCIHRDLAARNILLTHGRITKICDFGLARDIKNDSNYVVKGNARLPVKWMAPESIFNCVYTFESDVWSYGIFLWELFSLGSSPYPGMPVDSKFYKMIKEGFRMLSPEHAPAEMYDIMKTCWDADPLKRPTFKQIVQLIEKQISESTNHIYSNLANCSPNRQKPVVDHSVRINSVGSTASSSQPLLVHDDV", "assay": "Inhibition of human recombinant His-tagged KIT cytoplasmic domain expressed in baculovirus expression system using Tyr6 peptide as measured after 1 hr in presence of ATP by Z'-LYTE assay"}, "[9]": {"biological_target": "Testis-specific serine/threonine-protein kinase 1 (Homo sapiens, UniProt Q9BXA7)", "assay": "Inhibition of recombinant full length human His-tagged TSSK1 expressed in baculovirus expression system using serine/threonine-4 peptide as substrate incubated for 60 mins in presence of ATP by Z'-LYTE assay"}, "[10]": {"biological_target": "Death-associated protein kinase 3 (Homo sapiens, UniProt O43293)", "assay": "Inhibition of recombinant human full-length GST-tagged DAPK3 expressed in baculovirus expression system using FRET-labeled Ser/Thr 13 peptide as substrate measured after 1 hr in presence of ATP by Z'-lyte assay"}, "[11]": {"biological_target": "Mitogen-activated protein kinase kinase kinase 8 (Homo sapiens, UniProt P41279)", "assay": "Inhibition of recombinant human GST-tagged MAP3K8 catalytic domain expressed in baculovirus expression system using serine/threonine-3 peptide as substrate incubated for 60 mins in presence of ATP by Z'-LYTE assay"}, "[12]": {"biological_target": "RAC-alpha serine/threonine-protein kinase (Homo sapiens, UniProt P31749)", "assay": "Inhibition of recombinant full length human His-tagged AKT1 expressed in baculovirus expression system using serine/threonine-06 peptide as substrate incubated for 60 mins in presence of ATP by Z'-LYTE assay"}, "[13]": {"biological_target": "Melanocortin receptor 4 (Homo sapiens) (UniProt P32245)", "assay": "Displacement of [125I]NDP-alpha-MSH from full length human recombinant MC4 receptor expressed in HEK293 cells at 10 uM measured after 120 mins by radiometric scintillation analysis relative to control", "type": "cell-based"}, "[14]": {"biological_target": "D(1A) dopamine receptor (Homo sapiens) (UniProt P21728)", "sequence (P21728 whole entry)": "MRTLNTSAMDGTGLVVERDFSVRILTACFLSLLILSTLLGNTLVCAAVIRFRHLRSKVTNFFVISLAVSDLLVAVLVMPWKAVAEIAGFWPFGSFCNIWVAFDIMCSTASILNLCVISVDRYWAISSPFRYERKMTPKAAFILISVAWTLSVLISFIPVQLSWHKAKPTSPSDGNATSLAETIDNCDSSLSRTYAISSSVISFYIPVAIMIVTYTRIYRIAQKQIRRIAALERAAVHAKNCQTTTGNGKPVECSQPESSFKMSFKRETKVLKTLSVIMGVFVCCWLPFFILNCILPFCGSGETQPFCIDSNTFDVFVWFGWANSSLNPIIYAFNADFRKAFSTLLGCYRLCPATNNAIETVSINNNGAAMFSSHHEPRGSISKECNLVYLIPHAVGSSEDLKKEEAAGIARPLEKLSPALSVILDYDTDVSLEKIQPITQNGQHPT", "assay": "Displacement of [3H]SCH-23390 from recombinant full length human recombinant dopamine D1 receptor expressed in CHO cells at 10 uM measured after 120 mins by radiometric scintillation analysis relative to control", "type": "cell-based"}, "[15]": {"biological_target": "Insulin receptor (Homo sapiens, UniProt P06213)", "assay": "Inhibition of recombinant human GST-tagged INSR cytoplasmic domain expressed in baculovirus expression system using tyrosine-1 peptide as substrate incubated for 60 mins in presence of ATP by Z'-LYTE assay"}, "[16]": {"biological_target": "5-hydroxytryptamine receptor 3A (Homo sapiens) (UniProt P46098)", "assay": "Displacement of [3H]GR-65630 from full length human recombinant 5HT3 receptor expressed in HEK293 cells at 10 uM measured after 60 mins by radiometric scintillation analysis relative to control", "type": "cell-based"}, "[17]": {"biological_target": "Vasopressin V1b receptor (Homo sapiens) (UniProt P47901)", "sequence (P47901 whole entry)": "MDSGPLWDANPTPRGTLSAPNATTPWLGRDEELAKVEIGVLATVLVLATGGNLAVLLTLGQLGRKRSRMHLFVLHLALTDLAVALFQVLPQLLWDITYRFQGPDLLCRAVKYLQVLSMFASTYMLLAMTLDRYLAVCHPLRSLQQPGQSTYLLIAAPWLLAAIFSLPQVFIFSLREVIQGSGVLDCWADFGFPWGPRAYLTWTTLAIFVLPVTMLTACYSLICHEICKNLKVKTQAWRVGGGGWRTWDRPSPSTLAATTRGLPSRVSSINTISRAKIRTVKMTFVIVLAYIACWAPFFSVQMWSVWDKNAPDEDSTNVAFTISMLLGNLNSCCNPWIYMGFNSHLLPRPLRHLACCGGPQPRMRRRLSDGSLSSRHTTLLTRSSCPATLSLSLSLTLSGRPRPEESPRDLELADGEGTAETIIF", "assay": "Displacement of [3H]-(Arg8)-Vasopressin from recombinant full length human V1B receptor expressed in CHO-K1 cells at 10 uM after 120 mins by radiometric scintillation analysis relative to control", "type": "cell-based"}, "[18]": {"biological_target": "Inhibitor of nuclear factor kappa-B kinase subunit beta (Homo sapiens, UniProt O14920)", "sequence (O14920 whole entry)": "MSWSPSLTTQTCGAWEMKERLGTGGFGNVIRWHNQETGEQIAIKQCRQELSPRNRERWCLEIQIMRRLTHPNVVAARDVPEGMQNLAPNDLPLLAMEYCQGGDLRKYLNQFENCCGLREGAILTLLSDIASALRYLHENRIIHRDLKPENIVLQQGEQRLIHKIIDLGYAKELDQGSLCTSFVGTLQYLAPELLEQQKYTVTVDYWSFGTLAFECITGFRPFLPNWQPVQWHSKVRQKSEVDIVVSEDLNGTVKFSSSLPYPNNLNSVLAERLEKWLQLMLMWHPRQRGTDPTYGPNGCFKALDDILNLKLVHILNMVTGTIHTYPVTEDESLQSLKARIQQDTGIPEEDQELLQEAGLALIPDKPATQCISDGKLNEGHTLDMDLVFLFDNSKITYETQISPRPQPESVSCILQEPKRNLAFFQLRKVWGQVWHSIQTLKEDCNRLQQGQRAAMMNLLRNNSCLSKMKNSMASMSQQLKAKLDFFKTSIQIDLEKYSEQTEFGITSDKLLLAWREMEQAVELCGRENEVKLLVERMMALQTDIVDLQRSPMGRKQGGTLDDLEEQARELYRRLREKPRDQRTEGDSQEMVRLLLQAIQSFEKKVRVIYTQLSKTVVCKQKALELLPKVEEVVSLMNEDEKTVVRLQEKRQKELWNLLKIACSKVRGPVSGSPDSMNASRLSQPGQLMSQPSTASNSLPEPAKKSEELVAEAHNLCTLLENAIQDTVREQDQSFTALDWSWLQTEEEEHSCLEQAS", "assay": "Inhibition of recombinant human full-length GST-tagged IKBKB expressed in baculovirus expression system using FRET-labeled Ser/Thr 05 peptide as substrate measured after 1 hr in presence of ATP by Z'-lyte assay"}, "[19]": {"biological_target": "Protein kinase C alpha type (Homo sapiens, UniProt P17252)", "assay": "Inhibition of recombinant human GST-tagged PKCalpha expressed in insect expression system using serine/threonine-7 peptide as substrate incubated for 60 mins in presence of ATP by Z'-LYTE assay"}, "[20]": {"biological_target": "Tyrosine-protein kinase ABL2 (Homo sapiens, UniProt P42684)", "assay": "Inhibition of recombinant full length human C-terminal His-tagged ABL2F cytoplasmic domain expressed in baculovirus expression system using tyrosine-2 peptide as substrate incubated for 60 mins in presence of ATP by Z'-LYTE assay"}, "[21]": {"biological_target": "Casein kinase I isoform alpha (Homo sapiens, UniProt P48729)", "sequence (P48729 whole entry, canonical isoform)": "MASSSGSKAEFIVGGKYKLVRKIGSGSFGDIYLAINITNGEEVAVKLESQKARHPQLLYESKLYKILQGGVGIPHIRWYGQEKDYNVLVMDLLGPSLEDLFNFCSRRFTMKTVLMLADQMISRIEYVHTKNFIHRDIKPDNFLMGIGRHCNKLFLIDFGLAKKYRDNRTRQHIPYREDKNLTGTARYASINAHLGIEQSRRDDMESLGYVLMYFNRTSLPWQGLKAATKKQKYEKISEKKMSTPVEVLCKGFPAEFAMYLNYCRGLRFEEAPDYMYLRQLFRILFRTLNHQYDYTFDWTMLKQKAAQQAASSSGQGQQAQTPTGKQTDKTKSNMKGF", "assay": "Inhibition of recombinant full length human GST-tagged CSNK1A1 expressed in baculovirus expression system using fluorophore-labeled serine/threonine-11 peptide as substrate incubated for 60 mins in presence of ATP by Z'-LYTE assay"}, "[22]": {"biological_target": "MAO-B (Homo sapiens, UniProt P27338)", "assay": "Inhibition of recombinant full-length human MAO-B expressed in insect cells at 10 uM using kynuramine as substrate after 60 mins by spectrophotometric analysis relative to control", "settings": "probe kynuramine"}, "[23]": {"biological_target": "Tyrosine-protein kinase ABL1 (Homo sapiens, UniProt P00519, Y253F)", "assay": "Inhibition of recombinant full length human His-tagged ABL1 Y253F mutant cytoplasmic domain expressed in baculovirus expression system using tyrosine-2 peptide as substrate incubated for 60 mins in presence of ATP by Z'-LYTE assay"}, "[24]": {"biological_target": "Acetylcholine receptor subunit alpha (Homo sapiens) (UniProt P02708)", "assay": "Displacement of [125I]-alpha-Bungarotoxin from full length nAChR alpha1 receptor in human RD cell membranes at 10 uM measured after 120 mins by radiometric scintillation analysis relative to control"}, "[25]": {"biological_target": "Dual specificity tyrosine-phosphorylation-regulated kinase 1A (Homo sapiens, UniProt Q13627)", "assay": "Inhibition of recombinant full length human GST-tagged DYRK1A expressed in baculovirus expression system using serine/threonine-18 peptide as substrate incubated for 60 mins in presence of ATP by Z'-LYTE assay"}},
  "note": "pIC50: −log10 of the molar value.",
  "data": [
    {"smiles": "C[C@@H]1C[C@H]1C(=O)N1CCN(c2cnc(C#N)c(-c3cnn(C)c3)n2)C[C@H]1C", "values": [
      {"measurement": "inhibition", "setting": "[1]", "value": "> 50", "unit": "%"},
      {"measurement": "pIC50", "setting": "[2]", "value": "< 4.00"},
      {"measurement": "pIC50", "setting": "[3]", "value": "< 4.00"},
      {"measurement": "pIC50", "setting": "[4]", "value": "< 4.00"},
      {"measurement": "inhibition", "setting": "[5]", "value": 3, "unit": "%"},
      {"measurement": "inhibition", "setting": "[6]", "value": -3, "unit": "%"},
      {"measurement": "pIC50", "setting": "[7]", "value": "< 4.00"},
      {"measurement": "pIC50", "setting": "[8]", "value": "< 4.00"},
      {"measurement": "pIC50", "setting": "[9]", "value": "< 4.00"},
      {"measurement": "pIC50", "setting": "[10]", "value": "< 4.00"},
      {"measurement": "pIC50", "setting": "[11]", "value": "< 4.00"},
      {"measurement": "pIC50", "setting": "[12]", "value": "< 4.00"},
      {"measurement": "inhibition", "setting": "[13]", "value": 5, "unit": "%"},
      {"measurement": "inhibition", "setting": "[14]", "value": 2, "unit": "%"},
      {"measurement": "pIC50", "setting": "[15]", "value": "< 4.00"},
      {"measurement": "inhibition", "setting": "[16]", "value": 9, "unit": "%"},
      {"measurement": "inhibition", "setting": "[17]", "value": 6, "unit": "%"},
      {"measurement": "pIC50", "setting": "[18]", "value": "< 4.00"},
      {"measurement": "pIC50", "setting": "[19]", "value": "< 4.00"},
      {"measurement": "pIC50", "setting": "[20]", "value": "< 4.00"},
      {"measurement": "pIC50", "setting": "[21]", "value": "< 4.00"},
      {"measurement": "inhibition at 1 h, 10 µM", "setting": "[22]", "value": 11, "unit": "%"},
      {"measurement": "pIC50", "setting": "[23]", "value": "< 4.00"},
      {"measurement": "inhibition", "setting": "[24]", "value": 5, "unit": "%"},
      {"measurement": "pIC50", "setting": "[25]", "value": "< 4.00"}
    ]}
  ]
}
